Values after ≈ are worked out from the molar mass of the structure shown. “Also recorded” adds a separate entry of the source.
Key:
Assay type in all cases: physicochemical
[1] = Thermodynamic aqueous solubility; conditions: thermodynamic from solid, water, 25° C.
Procedure: Aqueous solubility was determined by suspending sufficient compound in relevant media to give a maximum final concentration of ≥200 mg/ml of the parent freeform of the compound. The suspension was equilibrated at 25° C., on a Heidolph plate shaker set to 750 rpm for 24 hours. The pH of the saturated solution was then measured and the suspension filtered through a glass fibre C filter (particle retention 1.2 μm) and diluted appropriately. Quantitation was by HPLC with reference to a standard solution of approximately 0.15 mg/ml in DMSO. Different volumes of the standard, diluted and undiluted sample solutions were injected.
The solubility was calculated using the peak areas determined by integration of the peak found at the same retention time as the principal peak in the standard injection.
Analysis was performed on an Agilent HP1100 series system equipped with a diode array detector and using ChemStation software.

[2] = pH profiling solubility experiments; conditions: 25 °C, thermodynamic from solid
Procedure: Procedure: pH profiling solubility experiments were performed on MH1 and MH2. Solubility was determined in singlicate by suspending sufficient compound in relevant media (1.00 ml) to give a maximum final concentration as shown in the Table 17.
The suspensions were equilibrated at 25° C., on a Heidolph plate shaker set to 750 rpm for 24 hours. Samples were pH adjusted as required using 0.5M/1M HCl and 0.2M NaOH to within 0.1 of the desired pH unit (where possible). The pHs of the saturated solutions were measured (where applicable) and an appearance was recorded. The suspensions were filtered through a glass fibre C filter (particle retention […]) and diluted appropriately. Quantitation was by HPLC with reference to a standard solution of approximately 0.15 mg/ml in DMSO. Different volumes of the standard, diluted and undiluted sample solutions were injected. The solubility was calculated using the peak areas determined by integration of the peak found at the same retention time as the principal peak in the standard injection.

[3] = Solubility repeat at pH 1.2 (reverse addition); conditions: pH 1.2 buffered media, pH maintained at 1.2, reverse addition
Procedure: Procedure: pH 1.2 buffered media (0.4 ml) was added to two separate 7 ml vials. For each compound, material was added in portions to the pH 1.2 media. After each addition of compound, the vial was vortex mixed and the pH and appearance was recorded. The samples were adjusted to pH 1.2 with 1M HCl to within 0.05 of the desired pH unit. This was repeated until no further material was available (˜400 mg for each form, which would give a maximum concentration of around 1000 mg/ml if no adjustment was required).

[4] = Gravimetric Vapour Sorption (GVS)
Procedure: Sorption isotherms were obtained using a SMS DVS Intrinsic moisture sorption analyzer, controlled by DVS Intrinsic Control software. The sample temperature was maintained at 25° C. by the instrument controls. The humidity was controlled by mixing streams of dry and wet nitrogen, with a total flow rate of 200 ml/min. The relative humidity was measured by a calibrated Rotronic probe (dynamic range of 1.0-100% RH), located near the sample. The weight change, (mass relaxation) of the sample as a function of % RH was constantly monitored by a microbalance (accuracy ±0.005 mg).
Typically, 5-30 mg of sample was placed in a tared mesh stainless steel basket under ambient conditions. The sample was loaded and unloaded at 40% RH and 25° C. (typical room conditions). A moisture sorption isotherm was performed as outlined below (2 scans per complete cycle). The standard isotherm was performed at 25° C. at 10% RH intervals over a 0-90% RH range. Typically, a double cycle (4 scans) was carried out. Data analysis was carried out within Microsoft Excel using the DVS Analysis Suite.
The sample was recovered after completion of the isotherm and re-analyzed by XRPD.

[5] = Drying investigation of the two hydrates (vacuum oven, XRPD and TGA)
Procedure: Procedure: MH1 and MH2 were placed in a vacuum oven at 50° C. and RT for 24 h. The samples were then analysed by TGA and XRPD immediately after removal and after 4 hours standing under ambient conditions.

[6] = Variable temperature XRPD (VT XRPD)
Procedure: For variable temperature (VT) experiments the samples were prepared and analysed in an Anton Paar chromed sample holder. A heating/cooling rate of 10° C./min was used with a 2 min isothermal hold before the measurement started. The measurement parameters are as per the standard screening data collection method (detailed above). Measurements were taken at the following temperatures: 25, 50, 75, 100, 160, and 25° C. The sample was then reanalyzed by XRPD after 1 h to check for complete rehydration.
MH1 was analysed at 25, 50, 75, 100, 160 and 25° C. (10° C./min heating rate and a 2 min wait before the measurement started) on the Empyrean. The sample was then reanalysed by XRPD after 10 and 20 min to check for rehydration.
(§1) Procedure: A second batch of MH2 material was prepared using the same procedure. This sample was then analysed by VTXRPD and by XRPD under vacuum.

[7] = XRPD under vacuum
Procedure: For vacuum experiments the samples were prepared and analysed in an Anton Paar chromed sample holder. The measurement parameters are as per the standard screening data collection method (detailed above), at 25° C. with no vacuum (I2). A vacuum of around 50 mbar was then applied and the sample measured every 5 min until the anhydrate pattern was obtained for three consecutive measurements (to ensure complete dehydration, up to sample I8). The vacuum was then released and the sample analysed every 5 min for 6 measurements (until sample I22). The sample was then reanalyzed by XRPD after 1 h to check for complete rehydration.
MH1 was analysed at 25° C. with no vacuum. A vacuum of around 50 mbar was then applied and the sample measured every 5 min until the anhydrate pattern was obtained for three consecutive measurements (to ensure complete dehydration). The vacuum was then released and the sample analysed every 5 min for 6 measurements before the front of the sample stage was removed.
as §1

## C[C@@H]1CN(Cc2ncccn2)C[C@H]1c1cn2c(C3CCOCC3)ncc2c(=O)[nH]1 [MH2, 6-[(3S,4S)-4-methyl-1-(pyrimidin-2-ylmethyl)pyrrolidin-3-yl]-3-tetrahydropyran-4-yl-7H-imidazo[1,5-a]pyrazin-8-one]
[1]
  solubility thermodynamic at 24 h: 36.5 mg/mL (≈ 92.5 mM)
[2]; pH 1.2 media, pH 1.2, simulated gastric fluid, media pH 1.2, 25° C., pH not maintained, final pH 5.02 (MH1-A), 6.63 (MH2-A)
  solubility at 24 h: > 275 mg/mL
[2]; pH 4.0 media, pH 4, aqueous buffer, media pH 4.0, 25° C.
  solubility at 24 h: > 99 mg/mL
[2]; pH 6.5 media, pH 6.5, aqueous buffer, media pH 6.5, 25° C.
  solubility at 24 h: > 147 mg/mL
[2]; pH 7.5 media, pH 7.5, aqueous buffer, media pH 7.5, 25° C.
  solubility at 24 h: 58 mg/mL (≈ 147 mM)
[3]
  Solubility at pH 1.2: >161 mg/ml
[4]; 40 to 90% RH, 25° C.
  GVS first sorption cycle uptake: lack of uptake; also recorded: First sorption cycle from 40 to 90% RH, no uptake
[4]; solid form after GVS
  XRPD post-GVS: rehydrated as MH1; also recorded: Crystalline - Matches MH1
[5]; vacuum oven 50° C. 24 h, immediately after removal
  XRPD (T = 0, 50° C.): Matches MH1 and AH
[5]; vacuum oven 50° C. 24 h, immediately after removal, lost between 25 and 100° C.
  TGA (T = 0, 50° C.): 0.6% w/w lost between
[5]; vacuum oven 50° C. 24 h, then 4 hours ambient, lost between 25 and 100° C.
  TGA (T = 4 h, 50° C.): 1.9% w/w lost between
[5]; vacuum oven 50° C. 24 h, then 4 hours at ambient conditions
  XRPD (T = 4 h, 50° C.): Matches MH1
[5]; vacuum oven RT 24 h, immediately after removal
  XRPD (T = 0, RT): Matches MH1 and AH
[5]; vacuum oven RT 24 h, immediately after removal, lost between 25 and 100° C.
  TGA (T = 0, RT): 0.2% w/w lost between
[5]; vacuum oven RT 24 h, then 4 hours ambient, lost between 25 and 100° C.
  TGA (T = 4 h, RT): 1.9% w/w lost between
[5]; vacuum oven RT 24 h, then 4 hours at ambient conditions
  XRPD (T = 4 h, RT): Matches MH1
[6]; 50° C.
  Form by VT XRPD upon heating: mixture of MH2 and AH
[6]; 75° C.
  Form by VT XRPD upon heating: complete conversion to AH
[6]; re-cooled to 25° C.
  Form by VT XRPD after cooling back: completely transformed into MH1
[7]; data collected for 55 minutes after release
  Final XRPD pattern after vacuum released: mixture of AH and MH1
[7]; reanalyzed after 1 h
  Form by XRPD on reanalysis: complete rehydration to MH 1
[7]; vacuum of around 50 mbar, 25° C.
  Time under vacuum to conversion to the anhydrate by XRPD: 5 min

## C[C@@H]1CN(Cc2ncccn2)C[C@H]1c1cn2c(C3CCOCC3)ncc2c(=O)[nH]1 [anhydrate, 6-[(3S,4S)-4-methyl-1-(pyrimidin-2-ylmethyl)pyrrolidin-3-yl]-3-tetrahydropyran-4-yl-7H-imidazo[1,5-a]pyrazin-8-one]
[6]; after VT XRPD, standing at 25° C.
  Conversion under ambient conditions: readily converts to MH1
[7]; after vacuum XRPD, ambient air
  Conversion under ambient conditions: readily converts to MH1
